Structures can show the parent of a compound that is named as a salt.

Chain of Btk enzyme (His-Btk) (Q06187 whole entry): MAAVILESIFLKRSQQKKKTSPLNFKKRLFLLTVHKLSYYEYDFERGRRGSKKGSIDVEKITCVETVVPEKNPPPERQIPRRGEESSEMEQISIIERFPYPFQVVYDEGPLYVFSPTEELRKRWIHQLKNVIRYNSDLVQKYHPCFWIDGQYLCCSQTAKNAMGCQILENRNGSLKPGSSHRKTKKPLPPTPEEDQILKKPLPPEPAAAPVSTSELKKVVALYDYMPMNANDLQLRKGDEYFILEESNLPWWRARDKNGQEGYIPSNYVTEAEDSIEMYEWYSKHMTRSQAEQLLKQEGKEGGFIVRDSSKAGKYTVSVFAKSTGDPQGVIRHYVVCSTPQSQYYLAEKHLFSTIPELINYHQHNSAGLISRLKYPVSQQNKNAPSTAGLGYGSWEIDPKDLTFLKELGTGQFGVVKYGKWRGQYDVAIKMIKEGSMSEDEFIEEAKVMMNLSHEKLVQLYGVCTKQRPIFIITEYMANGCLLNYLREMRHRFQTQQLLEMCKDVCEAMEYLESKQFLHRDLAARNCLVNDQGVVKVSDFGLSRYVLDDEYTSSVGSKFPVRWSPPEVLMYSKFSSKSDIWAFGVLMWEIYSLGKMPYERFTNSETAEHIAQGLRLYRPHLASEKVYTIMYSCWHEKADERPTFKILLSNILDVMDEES

The first assay has as its target Btk enzyme (His-Btk) (Homo sapiens (Human), UniProt Q06187). The experiment in a line: Btk enzyme activity, IMAP fluorescence polarization assay (Assay Method A).
Conditions: not given
(Fluorescence polarisation rises when a labelled molecule tumbles more slowly, as on binding a larger partner.)
With `Nc1nccn2c([C@@H]3CCCN(C(=O)C4CCOC4)C3)nc(-c3ccc(C(=O)Nc4ccccn4)cc3)c12` (stereo partly drawn) [Example 56, 4-(8-amino-3-((3R)-1-(tetrahydrofuran-3-carbonyl)piperidin-3-yl)imidazo[1,5-a]pyrazin-1-yl)-N-(pyridin-2-yl)benzamide, TFA salt], the EC50 – broadly, the concentration that produces a half-maximal response – was in the range of 10 to 100 nM.

`CC(C)C(=O)N1CCOC(c2nc(-c3ccc(C(=O)Nc4cc(C(F)(F)F)ccn4)cc3)c3c(N)nccn23)C1` (centres unmarked) [Example 173, 4-(8-amino-3-(4-isobutyrylmorpholin-2-yl)imidazo[1,5-a]pyrazin-1-yl)-N-(4-(trifluoromethyl)pyridin-2-yl)benzamide] yielded an EC50 of less than 10 nM. Same read-out and setting: as for `Nc1nccn2c(C3CCc4[nH]nc(C5CC5)c4C3)nc(-c3ccc(C(=O)Nc4cc(C(F)(F)F)ccn4)cc3)c12` (centres unmarked) [Example 248, 4-(8-amino-3-(3-cyclopropyl-4,5,6,7-tetrahydro-1H-indazol-5-yl)imidazo[1,5-a]pyrazin-1-yl)-N-(4-(trifluoromethyl)pyridin-2-yl)benzamide], the figure is less than 10 nM.

The same assay, now with this note: read-out: EC50 Btk activity values - Assay Method A; IMAP-FP, 60 min pre-incubation, 5 μM ATP; class 100-1000 is given as ≧100 nM-<1 μM.
For the compound `N#Cc1csc(C(=O)N2CCC[C@@H](c3nc(-c4ccc(C(=O)Nc5cc(C6CC6)ccn5)cc4)c4c(N)nccn34)C2)c1` [Example 118, (R)-4-(8-amino-3-(1-(4-cyanothiophene-2-carbonyl)piperidin-3 yl)imidazo[1,5-a]pyrazin-1-yl)-N-(4-cyclopropylpyridin-2-yl)benzamide], the half-maximal effective concentration (EC50) is less than 10 nM.

Regarding `CCCc1ccnc(NC(=O)c2ccc(-c3nc(C4CCOC(C)(C)C4)n4ccnc(N)c34)cc2)c1` (centres unmarked) [Example 36, 4-(8-amino-3-(2,2-dimethyltetrahydro-2H-pyran-4-yl)imidazo[1,5-a]pyrazin-1-yl)-N-(4-propylpyridin-2-yl)benzamide], the concentration giving a half-maximal response (EC50) is less than 10 nM.

With `CC1(C(=O)N2CCC[C@@H](c3nc(-c4ccc(C(=O)Nc5cc(C(F)(F)F)ccn5)cc4)c4c(N)ncc(CCc5ccccc5)n34)C2)COC1` [Example 319, (R)-4-(8-amino-3-(1-(3-methyloxetane-3-carbonyl)piperidin-3-yl)-5-phenethylimidazo[1,5-a]pyrazin-1-yl)-N-(4-(trifluoromethyl)pyridin-2-yl)benzamide], the 50% effective concentration (EC50) was less than 10 nM.

As for `COCCC(=O)N[C@@H]1CCCN(c2nc(-c3ccc(C(=O)Nc4cc(C(F)(F)F)ccn4)cc3)c3c(N)nccn23)C1` [Example 219, (R)-4-(8-amino-3-(3-(3-methoxypropanamido)piperidin-1-yl)imidazo[1,5-a]pyrazin-1-yl)-N-(4-(trifluoromethyl)pyridin-2-yl)benzamide], the 50% effective concentration (EC50) is less than 10 nM. Take `COCCC(=O)N[C@@H]1CCC[C@@H](c2nc(-c3ccc(C(=O)Nc4cc(C(F)(F)F)ccn4)cc3)c3c(N)nccn23)C1` (relative stereo) [Example 166, 4-(8-amino-3-((trans)-3-(3-methoxypropanamido)cyclohexyl)imidazo[1,5-a]pyrazin-1-yl)-N-(4-(trifluoromethyl)pyridin-2-yl)benzamide]: the concentration giving a half-maximal response (EC50) was less than 10 nM. Still for that read-out and setting: the figure for `CC(C)c1ccnc(NC(=O)c2ccc(-c3nc([C@H]4CC[C@H](O)CC4)n4ccnc(N)c34)cc2)c1` [Example 6, 4-(8-amino-3-((trans)-4-hydroxycyclohexyl)imidazo[1,5-a]pyrazin-1-yl)-N-(4-isopropylpyridin-2-yl)benzamide] is less than 10 nM; for `CCNC(=O)N1CCC[C@@H](c2nc(-c3ccc(C(=O)Nc4cc(C(F)(F)F)ccn4)cc3)c3c(N)ncnn23)C1` [Example 256, (R)-3-(4-amino-5-(4-(4-(trifluoromethyl)pyridin-2-ylcarbamoyl)phenyl)imidazo[1,5-f][1,2,4]triazin-7-yl)-N-ethylpiperidine-1-carboxamide] it is less than 10 nM; for `CC(C)C(=O)N1CCC[C@@H](c2nc(-c3ccc(C(=O)Nc4cc(C(F)(F)F)ccn4)cc3)c3c(N)nccn23)C1` [Example 104, (R)-4-(8-amino-3-(1-isobutyrylpiperidin-3-yl)imidazo[1,5-a]pyrazin-1-yl)-N-(4-(trifluoromethyl)pyridin-2-yl)benzamide] it is less than 10 nM.

The values are drawn from patent US9718828B2 (MERCK SHARP & DOHME CORP., priority 2011, dated 2017).
